Test results reported in patent publication US20220348558A1, “INHIBITORS OF ENCEPHALITIC ALPHAVIRUSES” (priority 2019, published 2022).

Legend:
VEEV TC83 = experiment: microbe, parasite or virus in culture; assay type: cell-based; details: Venezuelan equine encephalitis virus, Vero 76, 48 h, read-out: VEEV TC83 EC50 nM
WEEV California = experiment: microbe, parasite or virus in culture; assay type: cell-based; details: Western equine encephalitis virus, Vero 76, 48 h, read-out: WEEV California EC50 nM

Row | SMILES | EC50 (VEEV TC83) | EC50 (WEEV California)
1 | COc1c(F)cc(-n2c(C34CC(CN3)C4)nc3c(-c4ccc(C)nc4)cc(C#N)cc3c2=O)cc1F [Example 175, 2-(2-azabicyclo[2.1.1]hexan-1-yl)-3-(3,5-difluoro-4-methoxyphenyl)-8-(6-methylpyridin-3-yl)-4-oxo-3,4-dihydroquinazoline-6-carbonitrile] | 1 to 50 nM | 51 to 150 nM
2 | COc1ccc(-n2c([C@@H]3CCCN3)nc3c(C)cc(C#N)cc3c2=O)cc1 [Example 51, (S)-3-(4-methoxyphenyl)-8-methyl-4-oxo-2-(pyrrolidin-2-yl)-3,4-dihydroquinazoline-6-carbonitrile] | 151 to 500 nM | 501 to 1000 nM
3 | COc1c(F)cc(-n2c([C@H]3CCCN3)nc3c(-c4ccc(C(F)(F)F)nc4)cc(C#N)cc3c2=O)cc1F [Example 118, (R)-3-(3,5-difluoro-4-methoxyphenyl)-4-oxo-2-(pyrrolidin-2-yl)-8-(6-(trifluoromethyl)pyridin-3-yl)-3,4-dihydroquinazoline-6-carbonitrile] | 1 to 50 nM | 51 to 150 nM
4 | COc1c(F)cc(-n2c(C34CC(CN3)C4)nc3c(-c4cc(C)nc(C)c4)cc(C#N)cc3c2=O)cc1F [Example 174, 2-(2-azabicyclo[2.1.1]hexan-1-yl)-3-(3,5-difluoro-4-methoxyphenyl)-8-(2,6-dimethylpyridin-4-yl)-4-oxo-3,4-dihydroquinazoline-6-carbonitrile] | 51 to 150 nM | 51 to 150 nM
5 | COc1ccc(-n2c([C@H]3CCCCN3)nc3ccc([N+](=O)[O-])cc3c2=O)cc1 [Example 33, (R)-3-(4-methoxyphenyl)-6-nitro-2-(piperidin-2-yl)quinazolin-4 (3H)-one] | 151 to 500 nM | 151 to 500 nM
6 | COc1ccc(-n2c(-c3ccon3)nc3c(-c4ccc(C)nc4)cc(C#N)cc3c2=O)cc1F [Example 199, 3-(3-fluoro-4-methoxyphenyl)-2-(isoxazol-3-yl)-8-(6-methylpyridin-3-yl)-4-oxo-3,4-dihydroquinazoline-6-carbonitrile] | 501 to 1000 nM | > 1000 nM
7 | COc1ccc(-n2c([C@@H]3CCCN3C)nc3ccc([N+](=O)[O-])cc3c2=O)cc1 [Example 13, (S)-3-(4-methoxyphenyl)-2-(1-methylpyrrolidin-2-yl)-6-nitroquinazolin-4 (3H)-one] | 1 to 50 nM | 51 to 150 nM
8 | COc1ccc(-n2c([C@@H]3C[C@@H](F)CN3)nc3c(C)cc([N+](=O)[O-])cc3c2=O)cc1F [Example 64, 2-((2S,4R)-4-fluoropyrrolidin-2-yl)-3-(3-fluoro-4-methoxyphenyl)-8-methyl-6-nitroquin-azolin-4 (3H)-one] | > 1000 nM | > 1000 nM
9 | O=c1c2cc([N+](=O)[O-])ccc2nc(C2CCCN2)n1-c1ccccc1F (stereo not drawn) [Example 41, 3-(2-fluorophenyl)-6-nitro-2-(pyrrolidin-2-yl)quinazolin-4 (3H)-one] | 501 to 1000 nM | > 1000 nM
10 | COc1ccc(-n2c(C3CCCN3)nc3c(N4CCC(N5CCOCC5)CC4)cc(C#N)cc3c2=O)cc1F (stereo not drawn) [Example 114, 3-(3-fluoro-4-methoxyphenyl)-8-(4-morpholinopiperidine-1-yl)-4-oxo-2-(pyrrolidin-2-yl)-3,4-dihydroquinazoline-6-carbonitrile] | 1 to 50 nM | 51 to 150 nM
11 | COc1cccc(-n2c(C3CCCN3)nc3ccc([N+](=O)[O-])cc3c2=O)c1 (stereo not drawn) [Example 32, 3-(3-methoxyphenyl)-6-nitro-2-(pyrrolidin-2-yl)quinazolin-4 (3H)-one] | > 1000 nM | > 1000 nM
12 | COc1ccc(-n2c([C@@H]3CC(=O)CN3)nc3c(-c4ccc(C)nc4)cc(C#N)cc3c2=O)cc1F [Example 185, (S)-3-(3-fluoro-4-methoxyphenyl)-8-(6-methylpyridin-3-yl)-4-oxo-2-(4-oxopyrrolidin-2-yl)-3,4-dihydroquinazoline-6-carbonitrile] | 151 to 500 nM | > 1000 nM
13 | COc1ccc(-n2c([C@H]3CCCN3)nc3c(-c4ccc(C)nc4)cc([N+](=O)[O-])cc3c2=O)cc1F [Example 92, (R)-3-(3-fluoro-4-methoxyphenyl)-8-(6-methylpyridin-3-yl)-6-nitro-2-(pyrrolidin-2-yl) quinazolin-4 (3H)-one] | 1 to 50 nM | 1 to 50 nM
14 | COc1ccc(-n2c([C@H]3CCC(=O)N3)nc3c(-c4ccc(C)nc4)cc(C#N)cc3c2=O)cc1F [Example 121, (R)-3-(3-fluoro-4-methoxyphenyl)-8-(6-methylpyridin-3-yl)-4-oxo-2-(5-oxopyrrolidin-2-yl)-3,4-dihydroquinazoline-6-carbonitrile] | > 1000 nM | > 1000 nM
15 | COc1ccc(-n2c([C@H]3CCCN3)nc3ccc(C#N)cc3c2=O)cc1 [Example 14, (R)-3-(4-methoxyphenyl)-4-oxo-2-(pyrrolidin-2-yl)-3,4-dihydroquinazoline-6-carbonitrile] | 1 to 50 nM | 51 to 150 nM
16 | Cc1cc(-c2cc(C#N)cc3c(=O)n(-c4cc(F)c(NCC5(CO)COC5)c(F)c4)c(C4CCCN4)nc23)cc(C)n1 (stereo not drawn) [Example 164, 3-(3,5-difluoro-4-(((3-(hydroxymethyl)oxetan-3-yl)methyl)amino)phenyl)-8-(2,6-dimethylpyridin-4-yl)-4-oxo-2-(pyrrolidin-2-yl)-3,4-dihydroquinazoline-6-carbonitrile] | 501 to 1000 nM | 501 to 1000 nM
17 | COc1ccc(-n2c([C@H]3CCCN3)nc3c(C)cc(C#N)cc3c2=O)cc1 [Example 50, (R)-3-(4-methoxyphenyl)-8-methyl-4-oxo-2-(pyrrolidin-2-yl)-3,4-dihydroquinazoline-6-carbonitrile] | 1 to 50 nM | 1 to 50 nM
18 | COc1ccc(-n2c(C3CCCN3)nc3ccc([N+](=O)[O-])cc3c2=O)cc1 (stereo not drawn) [Example 8, 3-(4-methoxyphenyl)-6-nitro-2-(pyrrolidin-2-yl) quinazolin-4 (3H)-one] | 1 to 50 nM | 1 to 50 nM
19 | COc1ccc(-n2c([C@H]3CCCN3)nc3c(F)c(F)c(F)cc3c2=O)cc1 [Example 16, (R)-6,7,8-trifluoro-3-(4-methoxyphenyl)-2-(pyrrolidin-2-yl)quinazolin-4 (3H)-one] | 501 to 1000 nM | > 1000 nM
20 | COc1c(F)cc(-n2c(C3C[C@H](F)CN3)nc3c(-c4cc(C)nc(C)c4)cc(C#N)cc3c2=O)cc1F (stereo partly drawn) [Example 160, 3-(3,5-Difluoro-4-methoxyphenyl)-8-(2,6-dimethylpyridin-4-yl)-2-((4S)-4-fluoropyrrolidin-2-yl)-4-oxo-3,4-dihydroquinazoline-6-carbonitrile] | 51 to 150 nM | 51 to 150 nM
21 | COc1ccc(-n2c(C3CCCN3C)nc3c(-c4ccc(C)nc4)cc(C#N)cc3c2=O)cc1F (stereo not drawn) [Example 111, 3-(3-fluoro-4-methoxyphenyl)-8-(6-methylpyridin-3-yl)-2-(1-methylpyrrolidin-2-yl)-4-oxo-3,4-dihydroquinazoline-6-carbonitrile] | 1 to 50 nM | 1 to 50 nM
22 | COc1ccc(-n2c([C@H]3C[C@H](F)CN3)nc3c(C)cc(C#N)cc3c2=O)cc1F [Example 54, 3-(3-fluoro-4-methoxyphenyl)-2-((2R,4S)-4-fluoropyrrolidin-2-yl)-8-methyl-4-oxo-3,4-dihydroquinazoline-6-carbonitrile] | 151 to 500 nM | 151 to 500 nM
23 | COc1ccc(-n2c([C@H]3CCN(C)C3)nc3c(C)cc([N+](=O)[O-])cc3c2=O)cc1F [Example 66, (S)-3-(3-fluoro-4-methoxyphenyl)-8-methyl-2-(1-methylpyrrolidin-3-yl)-6-nitroquinazolin-4 (3H)-one] | 151 to 500 nM | 151 to 500 nM
24 | COc1ccc(-n2c([C@H]3CCCN3)nc3c(F)cc(C#N)cc3c2=O)cc1 [Example 78, (R)-8-fluoro-3-(4-methoxyphenyl)-4-oxo-2-(pyrrolidin-2-yl)-3,4-dihydroquinazoline-6-carbonitrile] | 51 to 150 nM | 51 to 150 nM
25 | COc1ccc(-n2c(C3CCCN3)nc3c(-c4ccc(N5CCCC5)nc4)cc(C#N)cc3c2=O)cc1F (stereo not drawn) [Example 127, 3-(3-fluoro-4-methoxyphenyl)-4-oxo-8-(6-(pyrrolidin-1-yl)pyridin-3-yl)-2-(pyrrolidin-2-yl)-3,4-dihydroquinazoline-6-carbonitrile] | 1 to 50 nM | 51 to 150 nM
26 | COc1ccc(-n2c(C3CCCN3)nc3c(-c4ccnc(C)c4)cc(C#N)cc3c2=O)cc1F (stereo not drawn) [Example 138, 3-(3-fluoro-4-methoxyphenyl)-8-(2-methylpyridin-4-yl)-4-oxo-2-(pyrrolidin-2-yl)-3,4-dihydroquinazoline-6-carbonitrile] | 1 to 50 nM | 1 to 50 nM
27 | COc1ccc(-n2c(C3CCCN3)nc3c(-c4ccc(N5CCN(C)CC5)nc4)cc(C#N)cc3c2=O)cc1F (stereo not drawn) [Example 132, 3-(3-fluoro-4-methoxyphenyl)-8-(6-(4-methylpiperazin-1-yl)pyridin-3-yl)-4-oxo-2-(pyrrolidin-2-yl)-3,4-dihydroquinazoline-6-carbonitrile] | 1 to 50 nM | 1 to 50 nM
28 | COc1ccc(-n2c([C@H]3CCCN3)nc3cc(C)c([N+](=O)[O-])cc3c2=O)cc1 [Example 43, (R)-3-(4-methoxyphenyl)-7-methyl-6-nitro-2-(pyrrolidin-2-yl) quinazolin-4 (3H)-one] | 1 to 50 nM | 1 to 50 nM
29 | O=c1c2cc([N+](=O)[O-])ccc2nc([C@@H]2CCCN2)n1-c1ccccc1 [Example 5, (S)-6-nitro-3-phenyl-2-(pyrrolidin-2-yl) quinazolin-4 (3H)-one] | 151 to 500 nM | 151 to 500 nM
30 | COc1c(F)cc(-n2c(C3CCCN3)nc3c(-c4ccc(C#CC(C)(C)O)cc4)cc(C#N)cc3c2=O)cc1F (stereo not drawn) [Example 170, 3-(3,5-difluoro-4-methoxyphenyl)-8-(4-(3-hydroxy-3-methylbut-1-yn-1-yl)phenyl)-4-oxo-2-(pyrrolidin-2-yl)-3,4-dihydroquinazoline-6-carbonitrile] | 51 to 150 nM | 51 to 150 nM
